Results reported in publication PMC8147462, “Daldiniaeschsone A, a Rare Tricyclic Polyketide Having a Chromone Unit Fused to a δ-Lactone and Its Symmetrical Biphenyl Dimer, Daldiniaeschsone B, from an Endophytic Fungus Daldinia eschscholtzii SDBR-CMUNKC745” (Journal of Fungi, 2021).
“Also recorded” adds a separate entry of the source. Where two headings read alike, the source gives them in different places.

What was measured:
[1] = system: NO production in RAW 264.7 cells; experiment: nitric oxide (NO) production inhibitory activity in LPS-treated RAW 264.7 cells (Griess reaction); type: cell-based; details: for inhibition at 50 µg/mL: read-out: Anti-Inflammatory (NO Production Inhibitory Activity) % Inhibition at 50 µg/mL; for NO production inhibitory activity (in words): RAW 264.7 macrophage cells
Method: The NO inhibitory activity was performed using the same procedure as previously reported. RAW 264.7 (American Type Culture Collection, Manassas, VA, USA) were seeded at 4 × 10^4 cells/well in 96 well plates suspended in 100 μL DMEM supplemented with 10% FBS and incubated at 37 °C 5% CO2 overnight. Cells were incubated with 1 µg/mL LPS for 1 h and treated with various concentrations of sample compounds and vehicle control (DMSO) for 24 h. After 24 h, the NO production inhibitory was determined in the culture supernatant using the Griess reaction by adding 100 µL of Griess reagent in a 96 well plate for 10 min. The determination of nitric oxide was measured at 570 nm with Biochrom EZ Read 400 ELISA microplate reader (Biochrom Ltd., Cambridge, United Kingdom). Additionally, the data were presented as IC50 which was calculated with GraphPad Prism 6.0 software.

[2] = cytotoxicity / cell viability MTT assay; type: cell-based; details: mouse, RAW 264.7 cells, RAW 264.7, 24 h
Method: (§1) Cell viability studies were evaluated by the MTT (3-[4,5-dimethylthiazol-2-yl]-2,5-diphenyl tetrazolium bromide) assay. In brief, RAW 264.7 cells (5 × 10^4 cells/well) were cultured and incubated in 96-well plates for 24 h. The samples were prepared in DMSO at different concentrations ([…]). The cells were then treated with samples in DMEM medium (10% FBS, […] streptomycin, and 100 IU/mL penicillin at 37 °C in a 5% CO2) for 24 h. The medium was then removed and each well was filled with fresh DMEM containing 0.5 mg/mL MTT solution for 4 h at 37 °C in a 5% CO2. After that, the medium was removed, and the formazan precipitate was dissolved in DMSO [21]. The absorbance was measured at 550 nm on a microplate reader. All processes were performed in triplicate.

α-glucosidase = biological target: T1, α-glucosidase (Saccharomyces cerevisiae, UniProt P53341); experiment: biochemical; details: for inhibition at 200 µg/mL: read-out: α-Glucosidase Inhibitory Activity % Inhibition at 200 µg/mL
T1 construct: purchased Sigma, St. Louis, MO, USA G5003
T1 sequence (P53341 whole entry): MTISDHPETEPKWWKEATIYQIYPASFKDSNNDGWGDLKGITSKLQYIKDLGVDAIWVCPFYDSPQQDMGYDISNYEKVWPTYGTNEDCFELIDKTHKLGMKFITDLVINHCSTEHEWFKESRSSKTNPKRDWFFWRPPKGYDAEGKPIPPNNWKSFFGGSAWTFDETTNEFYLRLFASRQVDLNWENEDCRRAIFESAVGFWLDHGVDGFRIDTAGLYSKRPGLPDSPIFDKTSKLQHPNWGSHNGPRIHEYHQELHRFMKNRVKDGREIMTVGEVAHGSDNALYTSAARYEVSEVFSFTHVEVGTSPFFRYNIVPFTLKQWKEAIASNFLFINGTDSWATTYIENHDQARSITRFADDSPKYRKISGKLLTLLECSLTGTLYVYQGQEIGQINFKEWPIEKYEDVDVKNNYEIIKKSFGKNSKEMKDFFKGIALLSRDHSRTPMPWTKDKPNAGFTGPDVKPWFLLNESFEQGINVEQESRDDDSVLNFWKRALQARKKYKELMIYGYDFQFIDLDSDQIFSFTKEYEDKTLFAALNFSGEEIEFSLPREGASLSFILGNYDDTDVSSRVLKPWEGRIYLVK
Method: A colorimetric α-glucosidase assay was carried out by the previously described procedure. Briefly, the sample solution was dissolved in DMSO after the solutions were diluted with a phosphate buffer (100 mM KH2PO4, pH 6.9) become DMSO (10%, v/v) concentration. The substrate, p-nitrophenyl α-D-glucoside (Sigma, St. Louis, USA, CAS No. N1377), (c 1.5 mM), was prepared by dissolving with phosphate buffer. The tested samples (50 uL) were combined with 100 μL of the α-glucosidase enzyme solution (0.35 U/mL, Sigma, St. Louis, MO, USA, CAS. No. G5003), then the mixture was pre-incubated for 10 min at 37 °C. The enzymatic reaction was started by applying substrate (100 μL, c 1.5 mM) into the mixture and incubated at 37 °C for 20 min. The reaction was subsequently terminated by the addition of Na2CO3 (1 mL, c 1 M). The absorption was immediately measured at 405 nm by determining the quantity of p-nitrophenol released from the substrate.

RAW 264.7 cells = experiment: cytotoxicity / cell viability MTT assay; type: cell-based
Method: as §1

[3] = Mus musculus, RAW264.7, LPS 1 µg/mL, 24 h
[4] = read-out: α-Glucosidase Inhibitory Activity IC50

In the case of `COc1ccc2c(c1)c(CC(=O)O)c(C)n2C(=O)c1ccc(Cl)cc1` [Indomethacin, reference compound], the inhibition at 50 µg/mL [1, 3] is reported as 71%, the IC50 ([1]; Mus musculus, RAW264.7, LPS 1 µg/mL, 24 h, read-out: Anti-Inflammatory (NO Production Inhibitory Activity) IC50) is reported as 19.6 ± 0.62 µM and the viability at 24 h, 50 µg/mL [2] is reported as 85 ± 2.92%.
For `O=C1CC[C@H](O)c2cccc(O)c21` [Compound 3, (+)-regiolone], the inhibition at 200 µg/mL (α-glucosidase) was 97.8% and the IC50 (α-glucosidase; [4]) was 850 ± 1190 µM.
For `C[C@H]1Cc2cccc(O)c2C(=O)O1` [Compound 5, (+)-mellein], the inhibition at 200 µg/mL (α-glucosidase) was 97.5% and the IC50 (α-glucosidase; [4]) was 760 ± 90 µM.
For `COC(=O)C[C@@]12OC(=O)C[C@@H](C)[C@@H]1Oc1ccc(-c3ccc4c(c3O)C(=O)[C@]3(CC(=O)OC)OC(=O)C[C@@H](C)[C@@H]3O4)c(O)c1C2=O` [Compound 2, Daldiniaeschsone B], the IC50 (α-glucosidase) was 230 µM, the inhibition at 200 µg/mL (α-glucosidase) was 96.8% and the “Anti-Inflammatory (NO Production Inhibitory Activity) IC50” value ([1]; LPS 1 µg/mL, 24 h) was “inactive”. For the same molecule, the inhibition at 50 µg/mL [1, 3] was 36.9%, the “NO production inhibitory activity (in words)” value [1] was “no NO production inhibitory activities” and the “cytotoxicity against RAW 264.7 cells at 50 µg/mL (in words)” value (RAW 264.7 cells) was “without toxicity; also recorded: no cytotoxicity”.
With `COC(=O)C[C@@]12OC(=O)C[C@@H](C)[C@@H]1Oc1cccc(O)c1C2=O` (relative stereo) [Compound 1, Daldiniaeschsone A] the IC50 (α-glucosidase) was 160 ± 110 µM, the inhibition at 200 µg/mL (α-glucosidase) was 98.7% and the “Anti-Inflammatory (NO Production Inhibitory Activity) IC50” value ([1]; LPS 1 µg/mL, 24 h) was “inactive”. For the same molecule, the inhibition at 50 µg/mL [1, 3] was 26.5%, the “NO production inhibitory activity (in words)” value [1] was “no NO production inhibitory activities” and the viability at 24 h, 50 µg/mL [2] was greater than 75%. The “cytotoxicity against RAW 264.7 cells at 50 µg/mL (in words)” value (RAW 264.7 cells) was “without toxicity; also recorded: no cytotoxicity”.
Work on `C[C@H]1O[C@H](O[C@H]2[C@H](O)[C@@H](O)[C@@H](O[C@H]3[C@H](O)[C@@H](O)C(O)O[C@@H]3CO)O[C@@H]2CO)[C@H](O)[C@@H](O)[C@@H]1N[C@H]1C=C(CO)[C@@H](O)[C@H](O)[C@H]1O` (some centres unmarked) [Acarbose, reference compound] yielded an inhibition at 200 µg/mL (α-glucosidase) of 95.6%.
`O=C1C[C@@H](O)[C@@H](O)c2cccc(O)c21` [Compound 4, (+)-3,4-dihydro-3,4,8-trihydroxy-1(2H)-naphthalenone] gave an inhibition at 200 µg/mL (α-glucosidase) of 97.8% and an IC50 (α-glucosidase; [4]) of 550 ± 1330 µM.
